From PubChem BioAssay (NCI)
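A five-concentration, 48-hour dose response in 96-well plates underlies each endpoint, interpolated linearly between surrounding concentrations. Here, GI50 denotes the concentration required for 50% inhibition of growth. TGI denotes the concentration required for complete inhibition of growth.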

Legend:
Assay in all cases: NCI anticancer screen, dose series, 48 h
ACHN renal = test system: ACHN renal
COLO 205 colon = test system: COLO 205 colon
DU-145 prostate = test system: DU-145 prostate
LOX IMVI melanoma = test system: LOX IMVI melanoma
MCF7 breast = test system: MCF7 breast
NCI-H522 lung = test system: NCI-H522 lung
OVCAR-5 ovarian = test system: OVCAR-5 ovarian
SNB-75 CNS = test system: SNB-75 CNS
SW-620 colon = test system: SW-620 colon
UACC-257 melanoma = test system: UACC-257 melanoma

## CCOC(=O)N/N=C(/N)Cc1ccc(Cl)cc1
ACHN renal
  TGI: > 100 µM
COLO 205 colon
  TGI: > 100 µM
DU-145 prostate
  TGI: > 100 µM
LOX IMVI melanoma
  TGI: > 100 µM
MCF7 breast
  TGI: > 100 µM
NCI-H522 lung
  TGI: > 100 µM
OVCAR-5 ovarian
  TGI: > 100 µM
SNB-75 CNS
  TGI: > 100 µM
SW-620 colon
  TGI: > 100 µM
UACC-257 melanoma
  TGI: > 100 µM

## COc1ccc(/[N+]([O-])=C/c2ccccc2OC(=S)S)cc1
ACHN renal
  TGI: > 100 µM
COLO 205 colon
  TGI: > 100 µM
DU-145 prostate
  TGI: > 100 µM
LOX IMVI melanoma
  TGI: 52.7 µM
MCF7 breast
  TGI: > 100 µM
NCI-H522 lung
  TGI: 74 µM
OVCAR-5 ovarian
  TGI: > 100 µM
SNB-75 CNS
  TGI: > 100 µM
SW-620 colon
  TGI: > 100 µM
UACC-257 melanoma
  TGI: 97.1 µM

## CCCCC(C)(C/C=C/[C@@H]1[C@@H](C(O)CCCCCC(=O)OC)C(=O)C[C@H]1O[Si](C)(C)C(C)(C)C)O[Si](C)(C)C (stereo not given in full)
ACHN renal
  TGI: > 100 µM
COLO 205 colon
  TGI: > 100 µM
DU-145 prostate
  TGI: > 100 µM
LOX IMVI melanoma
  TGI: > 100 µM
MCF7 breast
  TGI: > 100 µM
NCI-H522 lung
  TGI: > 100 µM
OVCAR-5 ovarian
  TGI: > 100 µM
SNB-75 CNS
  TGI: > 100 µM
SW-620 colon
  TGI: > 100 µM
UACC-257 melanoma
  TGI: > 100 µM

## Cc1cc(N(CCCl)CCCl)ccc1/C=N\NC(=O)c1cccnc1
ACHN renal
  GI50: 10.7 µM
  TGI: > 100 µM
COLO 205 colon
  GI50: 19.1 µM
  TGI: 85.3 µM
DU-145 prostate
  GI50: 15.1 µM
  TGI: 99 µM
LOX IMVI melanoma
  GI50: 15.6 µM
  TGI: 99.4 µM
MCF7 breast
  GI50: 16.8 µM
  TGI: > 100 µM
NCI-H522 lung
  GI50: 15.2 µM
  TGI: 32.3 µM
OVCAR-5 ovarian
  GI50: 12 µM
  TGI: 60 µM
SNB-75 CNS
  GI50: 25.5 µM
  TGI: > 100 µM
SW-620 colon
  GI50: 30.3 µM
  TGI: > 100 µM
UACC-257 melanoma
  GI50: 6.96 µM
  TGI: 34.9 µM

## CC(=O)OC/C=C/Cn1nc(Br)c(=O)[nH]c1=O
ACHN renal
  TGI: > 100 µM
COLO 205 colon
  TGI: > 100 µM
DU-145 prostate
  TGI: > 100 µM
LOX IMVI melanoma
  TGI: > 100 µM
MCF7 breast
  TGI: > 100 µM
NCI-H522 lung
  TGI: > 100 µM
OVCAR-5 ovarian
  TGI: > 100 µM
SNB-75 CNS
  TGI: > 100 µM
SW-620 colon
  TGI: > 100 µM
UACC-257 melanoma
  TGI: > 100 µM

## CC(=O)Oc1c(OC(C)C)cc(=O)n2ccsc12
ACHN renal
  TGI: > 100 µM
COLO 205 colon
  TGI: > 100 µM
DU-145 prostate
  TGI: > 100 µM
LOX IMVI melanoma
  TGI: > 100 µM
MCF7 breast
  TGI: > 100 µM
NCI-H522 lung
  TGI: > 100 µM
OVCAR-5 ovarian
  TGI: > 100 µM
SNB-75 CNS
  TGI: > 100 µM
SW-620 colon
  TGI: > 100 µM
UACC-257 melanoma
  TGI: > 100 µM

## O=C1CSC(c2cccc(Oc3ccccc3)c2)N1c1cc(Cl)ccc1Cl (stereo not given)
ACHN renal
  TGI: 49.1 µM
COLO 205 colon
  TGI: 90.8 µM
DU-145 prostate
  TGI: > 100 µM
LOX IMVI melanoma
  TGI: 43.1 µM
MCF7 breast
  TGI: 23 µM
NCI-H522 lung
  TGI: 41.1 µM
OVCAR-5 ovarian
  TGI: 76.9 µM
SNB-75 CNS
  TGI: 62.6 µM
SW-620 colon
  TGI: 70.5 µM
UACC-257 melanoma
  TGI: 50.1 µM

## O=P1(C(O)c2ccccc2)N(Cc2ccccc2)[C@@H]2CCCC[C@H]2N1Cc1ccccc1 (stereo not given in full)
ACHN renal
  TGI: > 100 µM
COLO 205 colon
  TGI: 29.1 µM
DU-145 prostate
  TGI: > 100 µM
LOX IMVI melanoma
  TGI: 32.1 µM
MCF7 breast
  TGI: > 100 µM
NCI-H522 lung
  TGI: 63.6 µM
OVCAR-5 ovarian
  TGI: 76.8 µM
SNB-75 CNS
  TGI: 55.1 µM
SW-620 colon
  TGI: > 100 µM
UACC-257 melanoma
  TGI: 56 µM

## O=C(CCc1ccccc1)NCCc1ccc(O)c(O)c1
ACHN renal
  TGI: > 100 µM
COLO 205 colon
  TGI: 58.5 µM
DU-145 prostate
  TGI: > 100 µM
LOX IMVI melanoma
  TGI: > 100 µM
MCF7 breast
  TGI: 93.9 µM
NCI-H522 lung
  TGI: 44 µM
OVCAR-5 ovarian
  TGI: > 31.6 µM
SNB-75 CNS
  TGI: > 100 µM
SW-620 colon
  TGI: > 100 µM
UACC-257 melanoma
  TGI: > 100 µM

## O=C(NCc1ccc(Cl)c(Cl)c1)c1nc2ccccc2nc1NCc1ccc(Cl)c(Cl)c1
ACHN renal
  TGI: > 100 µM
COLO 205 colon
  TGI: > 100 µM
DU-145 prostate
  TGI: > 100 µM
LOX IMVI melanoma
  TGI: > 100 µM
MCF7 breast
  TGI: > 100 µM
NCI-H522 lung
  TGI: > 100 µM
OVCAR-5 ovarian
  TGI: > 100 µM
SNB-75 CNS
  TGI: > 100 µM
SW-620 colon
  TGI: > 100 µM
UACC-257 melanoma
  TGI: > 100 µM

## C/C(=C\CNc1ncnc2c1ncn2CCC#N)CO
ACHN renal
  TGI: > 100 µM
COLO 205 colon
  TGI: > 100 µM
DU-145 prostate
  TGI: > 100 µM
LOX IMVI melanoma
  TGI: > 100 µM
MCF7 breast
  TGI: > 100 µM
NCI-H522 lung
  TGI: > 100 µM
OVCAR-5 ovarian
  TGI: > 100 µM
SNB-75 CNS
  TGI: > 100 µM
SW-620 colon
  TGI: > 100 µM
UACC-257 melanoma
  TGI: > 100 µM

## CC(=O)OCc1cc2c(s1)C(=O)c1sccc1C2=O
ACHN renal
  TGI: 0.246 µM
COLO 205 colon
  TGI: 3.03 µM
DU-145 prostate
  TGI: 0.104 µM
LOX IMVI melanoma
  TGI: 0.0468 µM
MCF7 breast
  TGI: 0.416 µM
NCI-H522 lung
  TGI: 0.295 µM
OVCAR-5 ovarian
  TGI: 0.332 µM
SNB-75 CNS
  TGI: 0.12 µM
SW-620 colon
  TGI: 0.268 µM
UACC-257 melanoma
  TGI: 0.244 µM

## CC(C)S1=C2C(=O)CC(C)(C)CC2=Nc2ccccc21 (stereo not given)
ACHN renal
  TGI: > 100 µM
COLO 205 colon
  TGI: > 100 µM
DU-145 prostate
  TGI: > 100 µM
LOX IMVI melanoma
  TGI: > 100 µM
MCF7 breast
  TGI: > 100 µM
NCI-H522 lung
  TGI: > 100 µM
OVCAR-5 ovarian
  TGI: > 100 µM
SNB-75 CNS
  TGI: > 100 µM
SW-620 colon
  TGI: > 100 µM
UACC-257 melanoma
  TGI: > 100 µM

## CCCSC1=N/C(=C\c2ccco2)C(=O)N1
ACHN renal
  TGI: > 100 µM
COLO 205 colon
  TGI: > 100 µM
DU-145 prostate
  TGI: > 100 µM
LOX IMVI melanoma
  TGI: > 100 µM
MCF7 breast
  TGI: > 100 µM
NCI-H522 lung
  TGI: > 100 µM
OVCAR-5 ovarian
  TGI: > 100 µM
SNB-75 CNS
  TGI: > 100 µM
SW-620 colon
  TGI: > 100 µM
UACC-257 melanoma
  TGI: > 100 µM

## CN1Cc2c(ccc3c2OCO3)[C@@H]2[C@H](O)Cc3cc4c(cc3[C@@H]21)OCO4
ACHN renal
  TGI: > 100 µM
COLO 205 colon
  TGI: 4.55 µM
DU-145 prostate
  TGI: > 30.6 µM
LOX IMVI melanoma
  TGI: > 47.3 µM
MCF7 breast
  TGI: > 48.7 µM
NCI-H522 lung
  TGI: 14.6 µM
OVCAR-5 ovarian
  TGI: > 100 µM
SNB-75 CNS
  TGI: 7.64 µM
SW-620 colon
  TGI: > 100 µM
UACC-257 melanoma
  TGI: > 100 µM

## COc1cc(CC2C(=O)OCC2Cc2ccc(OC)c(OC)c2)ccc1O (stereo not given)
ACHN renal
  TGI: > 100 µM
COLO 205 colon
  TGI: > 100 µM
DU-145 prostate
  TGI: > 100 µM
LOX IMVI melanoma
  TGI: > 100 µM
MCF7 breast
  TGI: > 100 µM
NCI-H522 lung
  TGI: > 100 µM
OVCAR-5 ovarian
  TGI: > 100 µM
SNB-75 CNS
  TGI: > 100 µM
SW-620 colon
  TGI: > 100 µM
UACC-257 melanoma
  TGI: > 100 µM
